Pest or weed control data for ten molecules are collected here from patent publication US8754242B2, “Herbicides” (Syngenta Crop Protection LLC, priority 2007, dated 2014).

Common to all, as to assay type: in vivo
Assay [1] has as its system Lolium perenne (LOLPE). Kind of assay: Test Example 1 pre-emergence herbicidal activity. Particulars: Lolium perenne, 480 h, rate 250 g/ha, evaluated 20 days later, read-out: Pre-emergence activity LOLPE (100=total damage to plant; 0=no damage to plant). The method in brief: (§1)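 Plants sown in standard soil in pots; sprayed 1 day after sowing (pre-emergence) or after 10 days' glasshouse cultivation (post-emergence) with aqueous spray of compound formulated in acetone plus Emulsogen EL/N-methylpyrrolidone/dipropylene glycol monomethyl ether/X-77 solution. Damage scored 0–100 (100 = total damage) after 20 days (pre) or 15 days (post).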

Assay [2] relates to Echinochloa crus-galli (ECHCG). As to the kind of experiment: Test Example 1 pre-emergence herbicidal activity. Particulars: Echinochloa crus-galli, 480 h, rate 250 g/ha, evaluated 20 days later, read-out: Pre-emergence activity ECHCG (100=total damage to plant; 0=no damage to plant). The method in brief:
as §1

The test system of assay [3] is Alopecurus myosuroides (ALOMY). Kind of assay: Test Example 1 pre-emergence herbicidal activity. Particulars: Alopecurus myosuroides, 480 h, rate 250 g/ha, evaluated 20 days later, read-out: Pre-emergence activity ALOMY (100=total damage to plant; 0=no damage to plant). In outline:
as §1

Assay [4] deals with Avena fatua (AVEFA). Kind of assay: Test Example 1 pre-emergence herbicidal activity. Particulars: Avena fatua, 480 h, rate 250 g/ha, evaluated 20 days later, read-out: Pre-emergence activity AVEFA (100=total damage to plant; 0=no damage to plant). In outline: as §1
In assay [5] the test system is Digitaria sanguinalis (DIGSA). Kind of assay: Test Example 1 pre-emergence herbicidal activity. Particulars: Digitaria sanguinalis, 480 h, rate 250 g/ha, evaluated 20 days later, read-out: Pre-emergence activity DIGSA (100=total damage to plant; 0=no damage to plant). In outline: as §1
Assay [6] has as its system Setaria faberi (SETFA). As to the kind of experiment: Test Example 1 pre-emergence herbicidal activity. Conditions: Setaria faberi, 480 h, rate 250 g/ha, evaluated 20 days later, read-out: Pre-emergence activity SETFA (100=total damage to plant; 0=no damage to plant). In outline:
as §1

The subject of assay [7] is Lolium perenne (LOLPE). As to the kind of experiment: Test Example 1 post-emergence herbicidal activity. Conditions: 360 h, rate 125 g/ha, evaluated 15 days later, read-out: Post-emergence activity LOLPE (100=total damage to plant; 0=no damage to plant). The method in brief: as §1
Assay [8] relates to Echinochloa crus-galli (ECHCG). As to the kind of experiment: Test Example 1 post-emergence herbicidal activity. Particulars: 360 h, rate 125 g/ha, evaluated 15 days later, read-out: Post-emergence activity ECHCG (100=total damage to plant; 0=no damage to plant). The method in brief: as §1
In assay [9] the test system is Alopecurus myosuroides (ALOMY). Kind of assay: Test Example 1 post-emergence herbicidal activity. Particulars: 360 h, rate 125 g/ha, evaluated 15 days later, read-out: Post-emergence activity ALOMY (100=total damage to plant; 0=no damage to plant). In outline:
as §1

Assay [10] has as its system Avena fatua (AVEFA). As to the kind of experiment: Test Example 1 post-emergence herbicidal activity. Conditions: 360 h, rate 125 g/ha, evaluated 15 days later, read-out: Post-emergence activity AVEFA (100=total damage to plant; 0=no damage to plant). In outline: as §1
Assay [11] has as its system Digitaria sanguinalis (DIGSA). Kind of assay: Test Example 1 post-emergence herbicidal activity. Conditions: 360 h, rate 125 g/ha, evaluated 15 days later, read-out: Post-emergence activity DIGSA (100=total damage to plant; 0=no damage to plant). The method in brief: as §1
Assay [12] concerns Setaria faberi (SETFA). As to the kind of experiment: Test Example 1 post-emergence herbicidal activity. Particulars: 360 h, rate 125 g/ha, evaluated 15 days later, read-out: Post-emergence activity SETFA (100=total damage to plant; 0=no damage to plant). The method in brief:
as §1

Molecules are shown by their SMILES.

With `CCc1ccc(Br)cc1C1=C(O)[C@H]2[C@@H](C1=O)[C@@H]1CC[C@H]2O1` [Example T134], the pest or weed control at 250 g/ha in assay [1] amounted to 70%; in [2] it was 20%; in [3], 60%; in assay [4] it was 20%; in [5], 50%; in assay [6] it was 0%. Besides, the pest or weed control at 125 g/ha worked out at 20% in assay [7]; 70% in [8]; 20% in [9]; 20% in assay [10]; 20% in assay [11]; 50% in [12].
Turning to `CCc1cc(C)cc(CC)c1C1=C(O)[C@@H]2[C@@H]3O[C@@H](C[C@H]3c3ccc(C)cc3Cl)[C@@H]2C1=O` [Example T143], the pest or weed control at 250 g/ha in assay [1] was 70%; in assay [2], 10%; in assay [3] it was 50%; in assay [4] it was 20%; in [5], 80%; in assay [6] it was 70%. Further, the pest or weed control at 125 g/ha in assay [7] was 30%; in assay [8] it was 70%; in assay [9], 40%; in assay [10] it was 60%; in assay [11], 60%; in assay [12] it was 40%.
`CCc1cc(C)cc(CC)c1C1=C(O)[C@@H]2[C@@H]3O[C@@H](C[C@H]3c3ccc(C)c(F)c3)[C@@H]2C1=O` [Example T146]: the pest or weed control at 250 g/ha is 90% in [1]; 80% in [2]; 70% in assay [3]; 60% in [4]; 80% in assay [5]; 80% in assay [6]. Besides, the pest or weed control at 125 g/ha in assay [7] is 90%; in assay [8] it was 100%; in assay [9] it was 80%; in assay [10], 80%; in [11], 70%; in assay [12], 70%.
`CCc1cc(C)cc(CC)c1C1=C(O)[C@@H]2[C@@H]3O[C@@H](C[C@H]3c3cc(F)ccc3C)[C@@H]2C1=O` [Example T147]: the pest or weed control at 250 g/ha in assay [1] stood at 40%; in assay [2], 90%; in assay [3] it was 40%; in [4] it was 0%; in assay [5], 40%; in assay [6] it was 60%. Moreover, the pest or weed control at 125 g/ha in assay [7] was 40%; in assay [8], 90%; in assay [9] it was 90%; in [10], 90%; in [11], 100%; in assay [12], 70%.
Take `CCc1cc(C)cc(CC)c1C1=C(O)[C@@H]2[C@@H]3O[C@@H](C[C@H]3c3ccc(F)c(Cl)c3)[C@@H]2C1=O` [Example T149]: the pest or weed control at 250 g/ha was 80% in [1]; 90% in assay [2]; 90% in assay [3]; 60% in assay [4]; 70% in assay [5]; 80% in [6]. Also, the pest or weed control at 125 g/ha was determined as 70% in assay [7]; 100% in assay [8]; 80% in assay [9]; 90% in assay [10]; 80% in assay [11]; 70% in [12].
Consider `CCc1cc(C)cc(CC)c1C1=C(O)[C@@H]2[C@@H]3O[C@@H](C[C@H]3c3ccc(Cl)c(Cl)c3)[C@@H]2C1=O` [Example T150], for which the pest or weed control at 250 g/ha in [1] was determined as 30%; in assay [2], 40%; in assay [3], 0%; in [4], 0%; in [5], 0%; in assay [6], 0%. In addition, the pest or weed control at 125 g/ha in assay [7] came out at 40%; in assay [8], 100%; in [9], 60%; in [10], 60%; in [11], 30%; in assay [12], 90%.
As for `CCc1cc(C)cc(CC)c1C1=C(O)[C@@H]2[C@@H]3O[C@@H](C[C@H]3c3ccc(C)c(Cl)c3)[C@@H]2C1=O` [Example T151], the pest or weed control at 250 g/ha in assay [1] is 60%; in assay [2] it was 40%; in assay [3], 50%; in [4] it was 20%; in assay [5], 80%; in [6], 20%. Further, the pest or weed control at 125 g/ha came to 30% in [7]; 80% in [8]; 80% in [9]; 80% in [10]; 70% in assay [11]; 10% in [12].
Turning to `CCc1cc(C)cc(CC)c1C1=C(O)[C@@H]2[C@@H]3O[C@@H](C[C@H]3c3cccc(OC)c3)[C@@H]2C1=O` [Example T153], the pest or weed control at 250 g/ha in [1] amounted to 80%; in assay [2], 70%; in assay [3] it was 70%; in [4] it was 70%; in assay [5], 60%; in [6] it was 70%. For the same molecule, the pest or weed control at 125 g/ha in assay [7] amounted to 50%; in [8], 70%; in assay [9], 50%; in [10] it was 80%; in assay [11], 30%; in [12], 20%.
As for `CCc1cc(C)cc(CC)c1C1=C(O)[C@@H]2[C@@H]3O[C@@H](C[C@H]3c3cccc(C(F)(F)F)c3)[C@@H]2C1=O` [Example T154], the pest or weed control at 250 g/ha in assay [1] worked out at 80%; in assay [2] it was 100%; in assay [3], 70%; in [4], 50%; in [5] it was 70%; in assay [6], 70%. For the same molecule, the pest or weed control at 125 g/ha amounted to 60% in assay [7]; 100% in assay [8]; 90% in assay [9]; 60% in assay [10]; 70% in assay [11]; 70% in [12].
As for `CCc1cc(C)cc(CC)c1C1=C(O)[C@@H]2[C@@H]3O[C@@H](C[C@H]3c3ccc(Cl)cc3)[C@@H]2C1=O` [Example T155], the pest or weed control at 250 g/ha amounted to 80% in [1]; 60% in assay [2]; 60% in [3]; 50% in assay [4]; 70% in assay [5]; 60% in [6]. Moreover, the pest or weed control at 125 g/ha in assay [7] worked out at 60%; in [8], 100%; in assay [9], 90%; in [10], 70%; in assay [11] it was 100%; in assay [12], 100%.
